Experimental data published in PMC9250534, “Synthesis and direct assay of large macrocycle diversities by combinatorial late-stage modification at picomole scale” (Nature Communications, 2022).
Blank lines part the entries; values can stand above or below the compound they belong to. Numbered stars: 1 amine (or outer) side, 2 acyl side, 3 side chain; on linkers, the order of the positions; unused ones are H or OH. Bridge positions count the residues as written; N and C are the ends. Square brackets hold non-standard residues; d marks the D form. Peptide text beside a SMILES is read from it. * marks the point of attachment. ξ: configuration not given here. ξPro(4ξ-NHCOC6H4-4-Cl) = O=C(NC1CNC(C(=O)O)C1)c1ccc(Cl)cc1; 2Thenoyl(5-Cl) = O=C(c1ccc(Cl)s1)*; Benzoyl(4-Cl) = O=C(c1ccc(Cl)cc1)*; Cysteamide = C(CS[*:3])N[*:1]; Ethoxyacetyl = CCOCC(=O)*; Isovaleryl = CC(C)CC(=O)*; Dap = NC[CH](N)C(=O)O; Bz = O=C(c1ccccc1)*; Mpa = O=C(O)CCS

Target: MDM2 (Homo sapiens, UniProt Q00987)
Assay: MDM2 binding screen: displacement of fluorescent p53 peptide probe FP53 (fluorescence polarization)
Details: for fraction fluorescent probe displaced, Screen: initial screen; for fraction fluorescent probe displaced, Screen / fraction fluorescent probe displaced, Replicate: crude macrocycle reactions
Outline: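 Macrocycle reaction products at a final 10 µM were tested for displacement of a p53-based fluorescent peptide from human MDM2. Fluorescence anisotropy (ex 485/em 535 nm) was read once per macrocycle at 25 °C.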

[1] = 10 µM macrocycle concentration, crude acylated macrocycle (scaffold Mpa-AA1-AA2-AA3 x carboxylic acid), p53-based fluorescent peptide, human MDM2

MDM2, sequence (Q00987 whole entry): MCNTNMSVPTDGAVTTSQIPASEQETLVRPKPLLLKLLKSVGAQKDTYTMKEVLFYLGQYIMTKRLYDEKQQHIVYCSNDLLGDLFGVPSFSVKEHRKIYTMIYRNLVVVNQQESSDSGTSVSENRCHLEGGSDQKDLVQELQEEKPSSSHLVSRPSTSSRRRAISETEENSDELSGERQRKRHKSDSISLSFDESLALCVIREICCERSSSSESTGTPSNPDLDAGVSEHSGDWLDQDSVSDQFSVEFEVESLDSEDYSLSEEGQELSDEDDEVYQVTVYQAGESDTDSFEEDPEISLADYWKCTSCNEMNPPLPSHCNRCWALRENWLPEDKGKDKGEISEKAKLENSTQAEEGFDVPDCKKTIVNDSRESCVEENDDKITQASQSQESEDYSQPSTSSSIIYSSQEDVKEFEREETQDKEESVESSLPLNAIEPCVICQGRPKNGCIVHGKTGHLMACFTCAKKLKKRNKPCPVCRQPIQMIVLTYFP

Structure (SMILES): O=C1NC(Cc2ccccc2)C(=O)NCCSSCCC(=O)N2CCN(C(=O)c3ccc(Cl)s3)CC2C(=O)N2CCCC1C2 (stereo not shown) [X D7 B4 F + Acid 14]
fraction fluorescent probe displaced (crude reaction of macrocycle scaffold with Acid 14, (initial screen)): -0.0337 | fraction fluorescent probe displaced (crude reaction of macrocycle scaffold with Acid 14, replicate): 0.07

Structure (SMILES): O=C(/C=C/c1ccccc1)NC[C@@H]1NC(=O)[C@H](Cc2c[nH]c3ccccc23)NC(=O)c2cccc(c2)CNC(=O)CCSSCCNC1=O [X B5 W D3 Acid 91]
fraction fluorescent probe displaced, Screen (Acid 91): 0.16 | fraction fluorescent probe displaced, Replicate (Acid 91, replicate): 0.12

Structure (SMILES): O=C1NCCSSCCC(=O)N2CCN(C(=O)C=Cc3ccccc3)CC2C(=O)NC(Cc2ccccc2)C(=O)NCc2cccc1c2 (stereo not shown) [X D7 F B5 Acid 91]
fraction fluorescent probe displaced, Screen (Acid 91): 0.0563 | fraction fluorescent probe displaced, Replicate (Acid 91, replicate): 0.04

Structure (SMILES): O=C1CCSSCCNC(=O)C(Cc2c[nH]c3ccccc23)NC(=O)C2CCCN(C2)C(=O)C2(CCN(C(=O)C=Cc3ccccc3)CC2)N1 (stereo not shown) [X D6 B4 W Acid 91]
fraction fluorescent probe displaced, Screen (Acid 91): 0.11 | fraction fluorescent probe displaced, Replicate (Acid 91, replicate): 0.0168

Structure (SMILES): CC(=O)NC[C@@H]1NC(=O)[C@@H]2CCCN2C(=O)CCSSCCNC(=O)[C@H](Cc2c[nH]c3ccccc23)NC1=O [X-B1-D3-W + A7] ([Mpa]P[Dap](Ac)W-Cysteamide; disulfide 1-C)
fraction fluorescent probe displaced [1]: 0.05096

Structure (SMILES): O=C1CCSSCCNC(=O)[C@H](Cc2ccccc2)NC(=O)C2(CCN(C(=O)c3ccc(Cl)s3)CC2)NC(=O)CCN1 [X B2 D6 F Acid 14]
fraction fluorescent probe displaced, Screen (Acid 14): 0.13 | fraction fluorescent probe displaced, Replicate (Acid 14, replicate): 0.0229

Structure (SMILES): O=C1N[C@@H](Cc2c[nH]c3ccccc23)C(=O)NC2(CCN(C(=O)c3ccc(Cl)s3)CC2)C(=O)NCCSSCCC(=O)N2CCC[C@H]1C2 [X B4 W D6 Acid 14]
fraction fluorescent probe displaced, Screen (Acid 14): 0.08 | fraction fluorescent probe displaced, Replicate (Acid 14, replicate): 0.22

Structure (SMILES): O=C1CCSSCCNC(=O)c2cccc(c2)CNC(=O)C2(CCN(C(=O)/C=C/c3ccccc3)CC2)NC(=O)[C@H](Cc2c[nH]c3ccccc23)N1 [X W D6 B5 Acid 91]
fraction fluorescent probe displaced, Screen (Acid 91): 0.40 | fraction fluorescent probe displaced, Replicate (Acid 91, replicate): 0.34

Structure (SMILES): O=C1CCSSCCNC(=O)[C@H](CNC(=O)c2ccc(Cl)s2)NC(=O)[C@H](Cc2ccccc2)NC(=O)CCN1 [X B2 F D3 Acid 14]
fraction fluorescent probe displaced, Screen (Acid 14): 0.0241 | fraction fluorescent probe displaced, Replicate (Acid 14, replicate): 0.12

Structure (SMILES): O=C1CCSSCCNC(=O)C(CNC(=O)c2ccc(Cl)s2)NC(=O)C2CCCN2C(=O)C(Cc2ccccc2)N1 (stereo not shown) [X F B1 D3 Acid 14] ([Mpa]FP[Dap](2Thenoyl(5-Cl))-Cysteamide; disulfide 1-C; configuration not given here)
fraction fluorescent probe displaced, Screen (Acid 14): 0.17 | fraction fluorescent probe displaced, Replicate (Acid 14, replicate): 0.07

Structure (SMILES): O=C(/C=C/c1ccccc1)NC[C@@H]1NC(=O)CCSSCCNC(=O)[C@H](Cc2ccccc2)NC(=O)CCNC1=O [X D3 B2 F Acid 91]
fraction fluorescent probe displaced, Screen (Acid 91): 0.08 | fraction fluorescent probe displaced, Replicate (Acid 91, replicate): 0.04

Structure (SMILES): CCOCC(=O)NC[C@@H]1NC(=O)[C@@H]2CCCN2C(=O)CCSSCCNC(=O)[C@H](Cc2ccccc2)NC1=O [X-B1-D3-F + A104] ([Mpa]P[Dap](Ethoxyacetyl)F-Cysteamide; disulfide 1-C)
fraction fluorescent probe displaced [1]: 0.09201

Structure (SMILES): CC(C)CC(=O)NC[C@@H]1NC(=O)[C@@H]2CCCN2C(=O)CCSSCCNC(=O)[C@H](Cc2ccccc2)NC1=O [X-B1-D3-F + A8] ([Mpa]P[Dap](Isovaleryl)F-Cysteamide; disulfide 1-C)
fraction fluorescent probe displaced [1]: -0.02974

Structure (SMILES): O=C(NC[C@@H]1NC(=O)[C@@H]2CCCN2C(=O)CCSSCCNC(=O)[C@H](Cc2ccccc2)NC1=O)c1ccccc1 [X-B1-D3-F + A1] ([Mpa]P[Dap](Bz)F-Cysteamide; disulfide 1-C)
fraction fluorescent probe displaced [1]: -0.005048

More lines, now with the values ahead:

fraction fluorescent probe displaced, Screen (Acid 25): 0.0462 | fraction fluorescent probe displaced, Replicate (Acid 25, replicate): 0.07
Structure (SMILES): O=C1CCSSCCNC(=O)[C@H](Cc2ccccc2)NC(=O)C2(CCN(C(=O)c3ccc(Cl)cc3)CC2)NC(=O)c2cccc(c2)CN1 [X B5 D6 F Acid 25]

fraction fluorescent probe displaced, Screen (Acid 14): 0.17 | fraction fluorescent probe displaced, Replicate (Acid 14, replicate): 0.25
Structure (SMILES): O=C1CCSSCCNC(=O)[C@H](Cc2c[nH]c3ccccc23)NC(=O)[C@H]2CCCN(C2)C(=O)C2(CCN(C(=O)c3ccc(Cl)s3)CC2)N1 [X D6 B4 W Acid 14]

fraction fluorescent probe displaced, Screen (Acid 25): 0.22 | fraction fluorescent probe displaced, Replicate (Acid 25, replicate): 0.15
Structure (SMILES): O=C1CCSSCCNC(=O)C2CCCN(C2)C(=O)C2CC(NC(=O)c3ccc(Cl)cc3)CN2C(=O)C(Cc2c[nH]c3ccccc23)N1 (stereo not shown) [X W D5 B4 Acid 25]

fraction fluorescent probe displaced, Screen (Acid 25): 0.09 | fraction fluorescent probe displaced, Replicate (Acid 25, replicate): 0.15
Structure (SMILES): O=C1CCSSCCNC(=O)C(Cc2c[nH]c3ccccc23)NC(=O)C2CN(C(=O)c3ccc(Cl)cc3)CCN2C(=O)c2cccc(c2)CN1 (stereo not shown) [X B5 D7 W Acid 25]

fraction fluorescent probe displaced, Screen (Acid 25): 0.12 | fraction fluorescent probe displaced, Replicate (Acid 25, replicate): 0.17
Structure (SMILES): O=C1CCSSCCNC(=O)c2cccc(c2)CNC(=O)C(CNC(=O)c2ccc(Cl)cc2)NC(=O)C(Cc2c[nH]c3ccccc23)N1 (stereo not shown) [X W D3 B5 Acid 25]

fraction fluorescent probe displaced, Screen (Acid 25): 0.19 | fraction fluorescent probe displaced, Replicate (Acid 25, replicate): 0.07
Structure (SMILES): O=C1CCNC(=O)C2CN(C(=O)c3ccc(Cl)cc3)CCN2C(=O)C(Cc2c[nH]c3ccccc23)NC(=O)CCSSCCN1 (stereo not shown) [X W D7 B2 Acid 25]

fraction fluorescent probe displaced, Screen (Acid 25): 0.25 | fraction fluorescent probe displaced, Replicate (Acid 25, replicate): 0.15
Structure (SMILES): O=C(NC1CC2C(=O)N3CCCC3C(=O)NC(Cc3c[nH]c4ccccc34)C(=O)NCCSSCCC(=O)N2C1)c1ccc(Cl)cc1 (stereo not shown) [X D5 B1 W Acid 25] ([Mpa][ξPro(4ξ-NHCOC6H4-4-Cl)]PW-Cysteamide; disulfide 1-C; configuration not given here)

fraction fluorescent probe displaced, Screen (Acid 25): 0.12 | fraction fluorescent probe displaced, Replicate (Acid 25, replicate): 0.07
Structure (SMILES): O=C1CCSSCCNC(=O)C2CC(NC(=O)c3ccc(Cl)cc3)CN2C(=O)CCNC(=O)C(Cc2ccccc2)N1 (stereo not shown) [X F B2 D5 Acid 25]

fraction fluorescent probe displaced, Screen (Acid 14): 0.17 | fraction fluorescent probe displaced, Replicate (Acid 14, replicate): 0.07
Structure (SMILES): O=C1CCSSCCNC(=O)C(Cc2c[nH]c3ccccc23)NC(=O)C2CN(C(=O)c3ccc(Cl)s3)CCN2C(=O)CCN1 (stereo not shown) [X B2 D7 W Acid 14]

fraction fluorescent probe displaced, Screen (Acid 91): 0.19 | fraction fluorescent probe displaced, Replicate (Acid 91, replicate): 0.0168
Structure (SMILES): O=C(/C=C/c1ccccc1)NC[C@@H]1NC(=O)CCSSCCNC(=O)CCNC(=O)[C@H](Cc2c[nH]c3ccccc23)NC1=O [X D3 W B2 Acid 91]

fraction fluorescent probe displaced, Screen (Acid 25): 0.22 | fraction fluorescent probe displaced, Replicate (Acid 25, replicate): 0.20
Structure (SMILES): O=C1NC(Cc2c[nH]c3ccccc23)C(=O)NCCSSCCC(=O)N2CCN(C(=O)c3ccc(Cl)cc3)CC2C(=O)NCc2cccc1c2 (stereo not shown) [X D7 B5 W Acid 25]

fraction fluorescent probe displaced, Screen (Acid 25): 0.22 | fraction fluorescent probe displaced, Replicate (Acid 25, replicate): 0.20
Structure (SMILES): O=C1N[C@@H](Cc2c[nH]c3ccccc23)C(=O)NC2(CCN(C(=O)c3ccc(Cl)cc3)CC2)C(=O)NCCSSCCC(=O)N2CCC[C@H]1C2 [X B4 W D6 Acid 25]

fraction fluorescent probe displaced, Screen (Acid 14): 0.14 | fraction fluorescent probe displaced, Replicate (Acid 14, replicate): 0.07
Structure (SMILES): O=C1CCSSCCNC(=O)C2CC(NC(=O)c3ccc(Cl)s3)CN2C(=O)C(Cc2ccccc2)NC(=O)CCN1 (stereo not shown) [X B2 F D5 Acid 14]

fraction fluorescent probe displaced, Screen (Acid 91): 0.08 | fraction fluorescent probe displaced, Replicate (Acid 91, replicate): 0.0168
Structure (SMILES): O=C(C=Cc1ccccc1)NC1CC2C(=O)NCCC(=O)NCCSSCCC(=O)NC(Cc3ccccc3)C(=O)N2C1 (stereo not shown) [X F D5 B2 Acid 91]

fraction fluorescent probe displaced, Screen (Acid 91): 0.14 | fraction fluorescent probe displaced, Replicate (Acid 91, replicate): 0.07
Structure (SMILES): O=C1CCSSCCNC(=O)C(Cc2c[nH]c3ccccc23)NC(=O)C2CN(C(=O)C=Cc3ccccc3)CCN2C(=O)CCN1 (stereo not shown) [X B2 D7 W Acid 91]

fraction fluorescent probe displaced, Screen (Acid 25): 0.25 | fraction fluorescent probe displaced, Replicate (Acid 25, replicate): 0.30
Structure (SMILES): O=C1CCSSCCNC(=O)[C@H](Cc2c[nH]c3ccccc23)NC(=O)[C@H](CNC(=O)c2ccc(Cl)cc2)NC(=O)c2cccc(c2)CN1 [X B5 D3 W Acid 25]

fraction fluorescent probe displaced, Screen (Acid 25): -0.00813 | fraction fluorescent probe displaced, Replicate (Acid 25, replicate): 0.17
Structure (SMILES): O=C1CCSSCCNC(=O)C2CN(C(=O)c3ccc(Cl)cc3)CCN2C(=O)C(Cc2ccccc2)NC(=O)c2cccc(c2)CN1 (mixture of isomers) [X B5 F D7 Acid 25]

fraction fluorescent probe displaced, Screen (Acid 25): 0.09 | fraction fluorescent probe displaced, Replicate (Acid 25, replicate): 0.07
Structure (SMILES): O=C1CCSSCCNC(=O)c2cccc(c2)CNC(=O)C2CN(C(=O)c3ccc(Cl)cc3)CCN2C(=O)C(Cc2ccccc2)N1 (mixture of isomers) [X F D7 B5 Acid 25]

fraction fluorescent probe displaced, Screen (Acid 25): 0.12 | fraction fluorescent probe displaced, Replicate (Acid 25, replicate): 0.22
Structure (SMILES): O=C1CCSSCCNC(=O)C(CNC(=O)c2ccc(Cl)cc2)NC(=O)C2CCCN2C(=O)C(Cc2ccccc2)N1 (stereo not shown) [X F B1 D3 Acid 25] ([Mpa]FP[Dap](Benzoyl(4-Cl))-Cysteamide; disulfide 1-C; configuration not given here)

fraction fluorescent probe displaced, Screen (Acid 91): 0.03 | fraction fluorescent probe displaced, Replicate (Acid 91, replicate): 0.04
Structure (SMILES): O=C1NCCSSCCC(=O)N2CCN(C(=O)C=Cc3ccccc3)CC2C(=O)NC(Cc2c[nH]c3ccccc23)C(=O)N2CCCC1C2 (stereo not shown) [X D7 W B4 Acid 91]
